Experimental data: PubChem BioAssay AID463203 (Broad Institute, 2010)
Calls of active or inactive are those of the source.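 The calls were made as follows: active = more than half of replicate measurements showing over 20% loss of kinase signal relative to plate controls; inconclusive = some but at most half of replicates over 20% loss; inactive = no replicate over 20% signal loss.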

Biological target: Glycogen synthase kinase-3 alpha (Homo sapiens) (UniProt P49840)
Experiment: concentration-response blocking of human GSK3A – biochemical, luminescence, cell-free homogeneous, retest, dose response (AID 463203)
Settings: GSK-3 alpha enzyme, ADP-Glo luminescence, 60 min

Chain of Glycogen synthase kinase-3 alpha (Homo sapiens) (P49840 whole entry, looked up): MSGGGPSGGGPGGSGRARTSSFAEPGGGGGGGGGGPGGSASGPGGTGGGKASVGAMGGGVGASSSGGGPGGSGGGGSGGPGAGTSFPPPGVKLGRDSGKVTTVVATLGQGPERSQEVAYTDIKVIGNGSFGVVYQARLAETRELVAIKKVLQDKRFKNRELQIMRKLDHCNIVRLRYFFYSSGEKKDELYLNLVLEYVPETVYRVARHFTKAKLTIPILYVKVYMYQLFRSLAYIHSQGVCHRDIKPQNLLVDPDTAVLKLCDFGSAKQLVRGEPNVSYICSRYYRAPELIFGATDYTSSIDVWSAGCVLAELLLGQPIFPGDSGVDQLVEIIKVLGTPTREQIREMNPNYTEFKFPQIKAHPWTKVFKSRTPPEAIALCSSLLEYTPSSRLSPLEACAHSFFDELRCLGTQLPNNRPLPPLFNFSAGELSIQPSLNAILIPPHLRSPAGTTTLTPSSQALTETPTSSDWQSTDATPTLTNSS

Row | Compound | AC50
1 | c1cncc(CSc2nnc3ccc(-c4cccs4)nn23)c1 | 14.4 µM
2 | CCCC1=C(C(=O)OCC)C(c2ccc(N(C)C)cc2)n2ncnc2N1 (stereo unspecified) | > 30 µM (inactive)
3 | CCn1c2ccc(F)cc2c2nc3ccccc3nc21 | > 30 µM (inactive)
4 | CCOC(=O)c1cnc2ccc(OCC)cc2c1N1CCN(c2ccccc2OC)CC1 | 3.95 µM
5 | O=C(CCn1[nH]c(=O)c2ccccc2c1=O)N1CCOCC1 | > 30 µM (inactive)
6 | COc1ccccc1NC(=O)Nc1ccccc1Br | > 30 µM (inactive)
7 | Cc1cccc(C)c1OC(=O)C(c1ccccc1)c1ccccc1 | > 30 µM (inactive)
8 | Nc1ccc2c(c1)C(=O)c1ccccc1C2=O | > 30 µM (inactive)
9 | COc1cccc2c1C(=O)O/C2=C/c1ccc2c(c1)OCO2 | > 30 µM (inactive)
10 | O=C(O)c1cn(-c2ccccc2)nc1-c1cccnc1 | > 30 µM (inactive)
11 | C/C(NCCCn1ccnc1)=C(\C#N)C(N)=O | 19.2 µM
12 | O=C(NCc1ccc(C(=O)N2CCC3(CC2)OCCO3)cc1)c1cccc(Br)c1 | > 30 µM (inactive)
13 | Cc1nc2ncnn2c(C)c1Cc1ccccc1Cl | > 30 µM (inactive)
14 | O=c1[nH]c(=S)n(C2CC2)c(O)c1C=NCc1cccnc1 | 28.2 µM
15 | COc1ccc(-c2nc(N)n[nH]2)cc1 | > 30 µM (inactive)
16 | COCC(O)CSc1nc(C)[nH]c1[N+](=O)[O-] (stereo unspecified) | > 30 µM (inactive)
17 | O=C(NCCN1CCN(Cc2ccccc2)CC1)Nc1cc(Cl)cc(Cl)c1 | > 30 µM (inactive)
18 | CCCCOC(=O)C1=C(C)Nc2ncnn2C1c1ccc(OC)c(OC)c1OC (stereo unspecified) | 12.4 µM
19 | CCc1nnc(NS(=O)(=O)c2ccc(N/C=C(\C=O)c3nc4cc(Cl)ccc4o3)cc2)s1 | 9.24 µM
20 | O=S(=O)(c1ccc(Cl)nc1)N1CCN(Cc2ccc3c(c2)OCO3)CC1 | > 30 µM (inactive)
21 | Cc1cccc(C)c1OCC(O)CNC(C)c1ccccc1 (stereo unspecified) | > 30 µM (inactive)
22 | Cc1ccc(N(Cc2ccc([N+](=O)[O-])cc2)C(=O)c2ccco2)cc1C | > 30 µM (inactive)
23 | COc1cc(/C=C/c2nc(N)nc(-c3ccccc3O)n2)cc(OC)c1OC | > 30 µM (inactive)
24 | Clc1ccc(OCc2nnc(SCc3nnc(-c4ccccc4)o3)o2)c(Cl)c1 | > 30 µM (inactive)
25 | CCOC(=O)c1c(Cc2ccccc2)c[nH]c1C | > 30 µM (inactive)
26 | O=C(N/N=C/c1cccnc1)c1cc2c(ccc3ccccc32)o1 | > 30 µM (inactive)

Row | Compound | AC50
27 | N#C/C(C(N)=O)=C1/CCc2ccccc2N1 | 12.5 µM
28 | CCCCOC(=O)n1ccc(C(=O)Nc2ccccc2OC)n1 | 29.6 µM
29 | c1cncc(-c2nc(NCC3COc4ccccc4O3)c3ccccc3n2)c1 (stereo unspecified) | 22.9 µM
30 | Fc1ccc(-c2nnc3ccc(N4CCCC4)nn23)cc1 | 5.64 µM
31 | CN(C)c1nc2sc3c(c2c(=O)n1C)CC(C)(C)OC3 | > 30 µM (inactive)
32 | Cc1noc(C)c1COc1ccc(C(=O)OCC(=O)Nc2c(C)n(C)n(-c3ccccc3)c2=O)cc1 | > 30 µM (inactive)
33 | Fc1ccc(C2=Nn3c(nnc3-c3ccco3)SC2)cc1 | > 30 µM (inactive)
34 | NC(=O)CSc1nc(C2CC2)nc2sc3c(c12)CCCC3 | > 30 µM (inactive)
35 | CCN1CCN(c2c(Cl)cccc2NC(=O)c2cccs2)CC1 | > 30 µM (inactive)
36 | CCOC(=O)C1CCCN(Cc2sccc2C)C1 (stereo unspecified) | > 30 µM (inactive)
37 | CCOC(=O)c1nnn(-c2nonc2N)c1COc1ccc(F)cc1 | 4.9 µM
38 | C/C(=N\NC(=O)c1nnn(-c2nonc2N)c1-c1ccccc1)c1cccnc1 | 18.3 µM
39 | Cc1oc2c(Cl)c(Cl)c(O)c(CN(C)C)c2c1C(=O)c1ccc(Cl)cc1 | 7.71 µM
40 | COc1ccc(CC(=O)N2CCOCC2)cc1OC | > 30 µM (inactive)
41 | CC(=O)C1C(c2ccccc2)c2c(n[nH]c2C)CC1(C)O (stereo unspecified) | > 30 µM (inactive)
42 | COC(=O)c1cn(C(=O)c2ccccc2F)nc1N | > 30 µM (inactive)
43 | C/C(=C/c1oc2ccc(O)cc2c1[N+](=O)[O-])N(C)C | > 30 µM (inactive)
44 | Cc1sc(NC(=S)NC(=O)C(C)(C)C)c(C(N)=O)c1C | > 30 µM (inactive)
45 | CC12CCC(C(=O)Nc3ncc([N+](=O)[O-])s3)(OC1=O)C2(C)C (stereo unspecified) | > 30 µM (inactive)
46 | O=C(Nc1ccccc1-c1nnc(SCc2ccc(Cl)cc2)o1)c1ccccc1 | > 30 µM (inactive)
47 | Cc1cccc(N2CC(C(=O)Nc3nccs3)CC2=O)c1C (stereo unspecified) | > 30 µM (inactive)
48 | COc1ccc([N+](=O)[O-])cc1NC(=O)CCN1CCN(C)CC1 | > 30 µM (inactive)
49 | Cc1nc(SCC(=O)NCC2CCCO2)c2c3c(sc2n1)CCCC3 (stereo unspecified) | > 30 µM (inactive)
50 | C/C(=N\NC(=O)c1nnn(-c2nonc2N)c1CN1CCCCCC1)c1ccc(Br)cc1 | 29.7 µM
51 | COc1cc(C2C(C#N)=C(N)Oc3n[nH]c(-c4cccnc4)c32)ccc1OCC(N)=O (stereo unspecified) | > 30 µM (inactive)
52 | CCOc1ccc(Cn2nnc(C(=O)Nc3cc(OC)cc(OC)c3)c2N)cc1 | 13.7 µM

Row | Compound | AC50
53 | CCN1C(=S)SC(=O)C1=C1C=C(C)N(Cc2ccco2)C(C)=C1 | > 30 µM (inactive)
54 | COc1ccc(C(=O)OCC(=O)Nc2c(C)n(C)n(-c3ccccc3)c2=O)cc1 | > 30 µM (inactive)
55 | CCCC(=O)Nc1cc(-c2cn3cccnc3n2)ccc1OC | > 30 µM (inactive)
56 | CCc1cc2c(NCc3ccco3)ncnc2s1 | > 30 µM (inactive)
57 | CNc1ccc(/C=C/C(=O)c2ccc3c(c2)OCCO3)cc1[N+](=O)[O-] | > 30 µM (inactive)
58 | CCOC(=O)c1nnn(-c2nonc2N)c1-c1ccc(F)cc1 | 16.1 µM
59 | CC1(C)Cc2c(sc3nn[nH]c(=O)c23)CO1 | > 30 µM (inactive)
60 | COc1cc2c(C#N)c(N3CCCC3)nc(N)c2c(N)n1 | > 30 µM (inactive)
61 | COc1cccc(-c2c(C(=O)N/N=C/c3ccoc3)nnn2-c2nonc2N)c1 | 7.92 µM
62 | CC1CCCCC12NC(=O)N(CC(=O)Nc1sccc1C(N)=O)C2=O (stereo unspecified) | > 30 µM (inactive)
63 | COc1ccc(C2NC(=O)NC(C)=C2C(=O)OCc2ccc3c(c2)OCO3)cc1OC (stereo unspecified) | 10.2 µM
64 | Nc1cc(C(=O)O)c(N)c2c1C(=O)c1ccccc1C2=O | 7.46 µM
65 | Cc1nn(C)c(C)c1CN(C)S(=O)(=O)c1ccc(F)cc1 | > 30 µM (inactive)
66 | COc1ccc(-c2noc(CSc3nc(N)c(-c4ccccc4)c(=O)[nH]3)n2)cc1 | > 30 µM (inactive)
67 | CC(C)N=C(NC#N)SCc1ccccc1F | > 30 µM (inactive)
68 | CCOC(=O)N1CCc2c(sc3nc(SC(C)C)n(N)c(=O)c23)C1 | > 30 µM (inactive)
69 | Cc1ccc(/C=N/NC(=O)c2nnn(-c3nonc3N)c2CN(C)C)o1 | > 30 µM (inactive)
70 | O=C(CSc1nc2[nH]ncc2c(=O)n1-c1ccc(Cl)c(Cl)c1)NCc1ccccc1Cl | > 30 µM (inactive)
71 | CCOC(=O)N1CCC(N2CCN(S(=O)(=O)c3ccc(C)cc3)CC2)CC1 | > 30 µM (inactive)
72 | COc1ccc(C2=Nn3c(nnc3-c3ccncc3)SC2)cc1OC | 2.37 µM
73 | CCCNC(=O)NC(C)C12CC3CC(CC(C3)C1)C2 (stereo unspecified) | > 30 µM (inactive)
74 | O=C(Nc1cccc(Cl)c1N1CCOCC1)c1ccc(Br)o1 | > 30 µM (inactive)
75 | CSc1nc(SCCN(C)C)c2c3c(sc2n1)COC(C)(C)C3 | > 30 µM (inactive)
76 | CC1CCN(Cc2c(C(=O)N/N=C/c3ccc(C(F)(F)F)cc3)nnn2-c2nonc2N)CC1 | > 30 µM (inactive)
